Experimental data published in US4897344A, “Method of hardening gelatin” (Fuji Photo Film Co., Ltd., priority 1987, dated 1990).
≈ marks a conversion by molar mass, not a printed value.

Assay: Solubility in water at 25 °C (weight recovered undissolved and weight dissolved after stirring 5 hours)
Assay type: physicochemical
Conditions: for Weight Recovered: undissolved portion, 10 grams in 100 ml of water, 5 hours stirring; for solubility thermodynamic at 5 h: water, head prints 10 ml, text prints 100 ml
Method: Ten grams of Compound 1 of this invention and 10 grams of Comparative Compound (I) disclosed (as illustrative compound 3) in Japanese Patent Application No. 41221/78 for comparative purposes were each separately dissolved in 100 ml of water and stirred for 5 hours while maintaining a temperature of 25° C. The undissolved portion was recovered by filtration and the weight of the recovered material was determined after drying. Comparative Compound (I)
The weights of the compounds recovered and the amounts dissolved in 100 ml of water at 25° C. calculated on the basis of the weights recovered are shown in Table 1.

Row | Compound | Weight Recovered [grams] | solubility thermodynamic at 5 h [mg/mL] | solubility in water relative to Comparative Compound (I) (in words)
1 | C=CS(=O)(=O)CC(=O)NCCNC(=O)CS(=O)(=O)C=C [Comparative Compound (I), reference compound] | 8.0 | 20 (≈ 61.7 mM) | 
2 | C=CS(=O)(=O)C(CCc1ccc(S(=O)(=O)O)cc1)S(=O)(=O)C=C [Compound 1] | 0 | > 100 | much better solubility in water
